Patent US20240083857A1, “2-Methyl-Quinazolines” (Bayer Pharma Aktiengesellschaft, priority 2017, published 2024)

What was measured:
[1] = molecular target: K-Ras^G12C : hSOS1 interaction (Homo sapiens, UniProt Q07889); test: Biochemical assay 1: K-Ras^G12C interaction assay with hSOS1 (HTRF); format: binding; conditions: read-out: Assay 1 (KRAS-SOS Interaction) activity expressed as IC50
[2] = molecular target: human SOS1 (nucleotide exchange of K-Ras^G12C) (Homo sapiens, UniProt Q07889); test: Biochemical assay 2: K-Ras^G12C activation assay by hSOS1 at high GTP concentration (HTRF); conditions: high GTP; for IC50: read-out: Assay 2 (KRAS-Activation by SOS high GTP) activity expressed as IC50

Structure (SMILES)	IC50 [1] [nM]	IC50 [2] [nM]	inhibition at 20 µM ([2]; read-out: Assay 2 (KRAS-Activation by SOS high GTP) activity expressed as % inhibition at 20 μM, at 20 μM) [%]
COc1cc2nc(C)nc(N[C@H](C)c3ccc(-c4ccccc4CCN)s3)c2cc1OC (stereo in doubt) [Example 357, N-[1-{5-[2-(2-aminoethyl)phenyl]thiophen-2-yl}ethyl]-6,7-dimethoxy-2-methylquinazolin-4-amine]	51.2	48.8	
COc1cc2nc(C)nc(NC(C)c3ccc(-c4ccccc4[C@@H](C)NC(=O)OC(C)(C)C)s3)c2cc1OC (stereo in doubt) [Example 358, tert-butyl {1-[2-(5-{1-[(6,7-dimethoxy-2-methylquinazolin-4-yl)amino]ethyl}thiophen-2-yl)phenyl]ethyl}carbamate]	1440	1530	
COc1cc2nc(C)nc(NC(C)c3ccc(-c4ccccc4[C@@H](C)N)s3)c2cc1OC (stereo in doubt) [Example 359, N-[1-(5-{2-[1-aminoethyl]phenyl}thiophen-2-yl)ethyl]-6,7-dimethoxy-2-methylquinazolin-4-amine]	234	200	
COc1cc2nc(C)nc(NC(C)c3ccc(-c4ccccc4[C@H](C)N)s3)c2cc1OC (stereo in doubt) [Example 360, N-[1-(5-{2-[1-aminoethyl]phenyl}thiophen-2-yl)ethyl]-6,7-dimethoxy-2-methylquinazolin-4-amine]	195	141	
COc1cc2nc(C)nc(NC(C)c3cccc4c3CCO4)c2cc1OC (centres unmarked) [Example 22, N-[1-(2,3-dihydro-1-benzofuran-4-yl)ethyl]-6,7-dimethoxy-2-methylquinazolin-4-amine]	177	219	
COc1cc2nc(C)nc(NC(C)c3ccc4c(c3)OCO4)c2cc1OC (centres unmarked) [Example 23, N-[1-(1,3-benzodioxol-5-yl)ethyl]-6,7-dimethoxy-2-methylquinazolin-4-amine]	2720	1850	
COc1cc2nc(C)nc(NC(C)c3ccc4c(c3)CCO4)c2cc1OC (centres unmarked) [Example 24, N-[1-(2,3-dihydro-1-benzofuran-5-yl)ethyl]-6,7-dimethoxy-2-methylquinazolin-4-amine]	701	1220	
COc1cc2nc(C)nc(NC(C)c3ccc4c(c3)CCCC4)c2cc1OC (centres unmarked) [Example 25, 6,7-dimethoxy-2-methyl-N-[1-(5,6,7,8-tetrahydronaphthalen-2-yl)ethyl]quinazolin-4-amine]	541	850	
COc1cc2nc(C)nc(NC(C)c3c(C)nc4ccccn34)c2cc1OC (centres unmarked) [Example 26, 6,7-dimethoxy-2-methyl-N-[1-(2-methylimidazo[1,2-a]pyridin-3-yl)ethyl]quinazolin-4-amine]	9550		52
COc1cc2nc(C)nc(NC(C)c3csc4ccccc34)c2cc1OC (centres unmarked) [Example 27, N-[1-(1-benzothiophen-3-yl)ethyl]-6,7-dimethoxy-2-methylquinazolin-4-amine]	368	402	
Cc1nc(N[C@H](C)c2ccccc2)c2cc(N=S(C)(C)=O)ccc2n1 [Example 30, 6-{[dimethyl(oxido)-lambda6-sulfanylidene]amino}-2-methyl-N-[(1R)-1-phenylethyl]quinazolin-4-amine]	1340	1100	
Cc1nc(N[C@H](C)c2ccc(F)cc2)c2cc(N=S(C)(C)=O)ccc2n1 [Example 32, 6-{[dimethyl(oxido)-lambda6-sulfanylidene]amino}-N-[(1R)-1-(4-fluorophenyl)ethyl]-2-methylquinazolin-4-amine]	1070	1400	
COc1cc2nc(C)nc(NC(C)c3ccc4c(c3)NC(=O)CO4)c2cc1OC (centres unmarked) [Example 34, 6-{1-[(6,7-dimethoxy-2-methylquinazolin-4-yl)amino]ethyl}-2H-1,4-benzoxazin-3(4H)-one]	4230	3710	
COc1ccc2cc(C(C)Nc3nc(C)nc4cc(OC)c(OC)cc34)ccc2c1 (centres unmarked) [Example 35, 6,7-dimethoxy-N-[1-(6-methoxy-2-naphthyl)ethyl]-2-methylquinazolin-4-amine]	4720	4780	
COc1cc2nc(C)nc(N[C@H](C)c3cccc(-c4ccc(O)nc4)c3)c2cc1OC [Example 68, 5-(3-{(1R)-1-[(6,7-dimethoxy-2-methylquinazolin-4-yl)amino]ethyl}phenyl)pyridin-2-ol]	137	486	
COc1cc2nc(C)nc(N[C@H](C)c3cccc(-n4cccn4)c3)c2cc1OC [Example 341, 6,7-dimethoxy-2-methyl-N-{(1R)-1-[3-(1H-pyrazol-1-yl)phenyl]ethyl}quinazolin-4-amine]	2830	3730	
COc1cc2nc(C)nc(N[C@H](C)c3cccc(Br)c3)c2cc1OCc1ccccc1 [Example 343, 6-(benzyloxy)-N-[(1R)-1-(3-bromophenyl)ethyl]-7-methoxy-2-methylquinazolin-4-amine]	1680	1610	
COc1cc2nc(C)nc(N[C@H](C)c3cccc(-c4cn[nH]c4)c3)c2cc1OCc1ccccc1 [Example 344, 6-(benzyloxy)-7-methoxy-2-methyl-N-{(1R)-1-[3-(1H-pyrazol-4-yl)phenyl]ethyl}-quinazolin-4-amine]	931	1190	
COc1cc2nc(C)nc(N[C@H](C)c3cccc(-c4cn[nH]c4)c3)c2cc1O [Example 345, 7-methoxy-2-methyl-4-({(1R)-1-[3-(1H-pyrazol-4-yl)phenyl]ethyl}amino)quinazolin-6-ol]	14600	7840	
COc1cc2nc(C)nc(N[C@H](C)c3cccc(-c4cn[nH]c4)c3)c2cc1OCC1CC1 [Example 346, 6-(cyclopropylmethoxy)-7-methoxy-2-methyl-N-{(1R)-1-[3-(1H-pyrazol-4-yl)phenyl]ethyl}quinazolin-4-amine]	342	395	
COCCOc1cc2c(N[C@H](C)c3cccc(-c4cn[nH]c4)c3)nc(C)nc2cc1OC [Example 348, 7-methoxy-6-(2-methoxyethoxy)-2-methyl-N-{(1R)-1-[3-(1H-pyrazol-4-yl)phenyl]-ethyl}quinazolin-4-amine]	693	816	
CC[C@@H](O)c1ccccc1-c1ccc(C(C)Nc2nc(C)nc3cc(OC)c(OC)cc23)s1 (stereo partly drawn) [Example 349, (1R)-1-[2-(5-{1-[(6,7-dimethoxy-2-methylquinazolin-4-yl)amino]ethyl}thiophen-2-yl)phenyl]propan-1-ol]	231	649	
CCCCOc1cc2c(N[C@H](C)c3cccc(-c4cn[nH]c4)c3)nc(C)nc2cc1OC [Example 350, 6-butoxy-7-methoxy-2-methyl-N-{(1R)-1-[3-(1H-pyrazol-4-yl)phenyl]ethyl}quinazolin-4-amine]	688	736	
COc1cc2nc(C)nc(N[C@H](C)c3cccc(-c4cn[nH]c4)c3)c2cc1OCCC(C)C [Example 351, 7-methoxy-2-methyl-6-(3-methylbutoxy)-N-{(1R)-1-[3-(1H-pyrazol-4-yl)phenyl]ethyl}quinazolin-4-amine]	1710	1200	
COc1cc2nc(C)nc(NC(C)c3ccc(-c4ccccc4CCNC(=O)OC(C)(C)C)s3)c2cc1OC (centres unmarked) [Example 352, tert-butyl {2-[2-(5-{1-[(6,7-dimethoxy-2-methylquinazolin-4-yl)amino]ethyl}thiophen-2-yl)phenyl]ethyl}carbamate]	16000	12200	
